Patent publication US8629143B2, “Potassium channel modulators” (AbbVie Inc., priority 2009, dated 2014)
pEC50: −log10 of the molar value.

Assays:
[1] = test system: Adult male Sprague-Dawley rats; test: Spinal nerve ligation (SNL) model of neuropathic pain; format: in vivo; conditions: rat SNL model (L5/L6 ligation), about 30 mg/kg, tactile allodynia
Excerpt: (§1) Adult male Sprague-Dawley rats (250-300 g body weight, Charles River Laboratories, Portage, Mich.) were used. Animal handling and experimental protocols were approved by the Institutional Animal Care and Use Committee (IACUC) at Abbott Laboratories. For all surgical procedures, animals were maintained under isoflurane anesthesia (4-5% to induce, 1-3% to maintain), and the incision sites were sterilized using a 10% povidone-iodine solution prior to and after surgeries.
Tactile (mechanical) allodynia was measured using calibrated von Frey filaments (Stoelting, Wood Dale, Ill.) as described in Chaplan, S. R., F. W. Bach, J. M. Pogrel, J. M. Chung and T. L. Yaksh, 1994, Quantitative assessment of tactile allodynia in the rat paw, J. Neurosci. Methods, 53, 55. Rats were placed into inverted individual plastic containers (20×12.5×20 cm) on top of a suspended wire mesh grid, and acclimated to the test chambers for 20 minutes. The von Frey filaments were presented perpendicularly to the plantar surface of the selected hind paw, and then held in this position for approximately 8 sec with enough force to cause a slight bend in the filament. Positive responses included an abrupt withdrawal of the hind paw from the stimulus, or flinching behavior immediately following removal of the stimulus. A 50% withdrawal threshold was determined using an up-down procedure (Dixon, W. J., 1980, Efficient analysis of experimental observations, Ann. Rev. Pharmacol. Toxicol., 20, 441). […] Tactile allodynia thresholds were also assessed in several control groups, including naive, sham-operated, and saline infused animals as well as in the contralateral paws of nerve-injured rats. To evaluate the anti-nociceptive effects, animals were administered vehicle or test compound and tactile allodynia was assessed 30 minutes after i.p. administration.
A model of spinal nerve ligation-induced (SNL model) neuropathic pain as originally described by Kim and Chung (Kim, S. H. and J. M. Chung, 1992, Pain 50, 355) was used to test a compound of the present application The left L5 and L6 spinal nerves of the rat were isolated adjacent to the vertebral column and tightly ligated with a 5-0 silk suture distal to the DRG, and care taken to avoid injury of the L4 spinal nerve. The same procedure was performed on Sham rats, but without nerve ligation. All animals were allowed to recover for at least one week and not more than three weeks prior to assessment of tactile allodynia.

[2] = molecular target: T1, KCNQ 2/3 channels (HEK293 cells stably expressing human KCNQ2 and KCNQ3 subunits) (Homo sapiens, UniProt O43525+O43526); test: KCNQ2/3 channel activation, thallium flux FLIPR assay with BTC-AM dye; format: cell-based; conditions: for Emax: HEK293, maximum response relative to the response produced by 10 μM retigabine (set at 100%), read-out: Max. %; for pEC50: HEK293 cells expressing human KCNQ2 and KCNQ3, thallium flux, FLIPR
T1 construct: expressed in transfected cells; host or cells: HEK293
Method in brief: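 HEK293 cells stably expressing human KCNQ2/KCNQ3 were loaded with BTC-AM (3 μg/mL, 2 h, RT) and preincubated with compound for 4 min in pH 7.3 gluconate buffer containing 0.1 mM ouabain. Flux was triggered by 6 mM TlNO3/10 mM K2SO4 and read for 3 min; EC50 came from summed responses over basal, with maximum relative to 10 μM retigabine (100%).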

[3] = test system: Adult male Sprague-Dawley rats; test: Capsaicin-induced secondary mechanical hypersensitivity; format: in vivo; conditions: rat, about 30 mg/kg i.p., tactile allodynia 30 minutes after dosing, 180 minutes post-capsaicin
Excerpt: as §1
Rats were allowed to acclimate to the study room for 1 h. […] Secondary mechanical hyperalgesia was measured at the heel away from the site of injection at 180 minutes following capsaicin (Joshi et al 2006, Neuroscience 143, 587-596). […]
Tactile (mechanical) allodynia was measured using calibrated von Frey filaments (Stoelting, Wood Dale, Ill.) as described in Chaplan, S. R., F. W. Bach, J. M. Pogrel, J. M. Chung and T. L. Yaksh, 1994, Quantitative assessment of tactile allodynia in the rat paw, J. Neurosci. […] A 50% withdrawal threshold was determined using an up-down procedure (Dixon, W. J., 1980, Efficient analysis of experimental observations, Ann. Rev. Pharmacol. Toxicol., 20, 441). […] Tactile allodynia thresholds were also assessed in several control groups, including naive, sham-operated, and saline infused animals as well as in the contralateral paws of nerve-injured rats. […]
Tactile allodynia was measured as described above.

| Structure (SMILES) | change in paw withdrawal latency versus vehicle [1] | Emax [2] [%] | pEC50 [2] | change in paw withdrawal latency versus vehicle [3] |
| --- | --- | --- | --- | --- |
| O=C(C[C@H]1C[C@@H]2CC[C@H]1C2)Nn1nc(-c2ccc(C(F)(F)F)cc2)c2ccccc2c1=O (racemic) [Example 150, (±)-2-(exo-bicyclo[2.2.1]hept-2-yl)-N-{1-oxo-4-[4-(trifluoromethyl)phenyl]phthalazin-2(1H)-yl}acetamide] | statistically significant change | 138 | > 7.00 |  |
| O=C(Cc1ccc(Cl)cc1)Nn1nc(-c2ccc(Br)cc2)c2ccccc2c1=O [Example 3, N-[4-(4-bromophenyl)-1-oxophthalazin-2(1H)-yl]-2-(4-chlorophenyl)acetamide] |  | 100 | 6.30 to 7.00 | statistically significant change |
| O=C(CC12CC3CC(CC(C3)C1)C2)Nn1nc(-c2ccccc2)c2ccccc2c1=O [Example 17, 2-(1-adamantyl)-N-(1-oxo-4-phenylphthalazin-2(1H)-yl)acetamide] |  | 205 | > 7.00 | statistically significant change |
| CC1(C)[C@@H]2C[C@H]1[C@H](CC(=O)Nn1nc(-c3ccc(Cl)cc3)c3ccccc3c1=O)C(F)(F)C2 [Example 88, N-[4-(4-chlorophenyl)-1-oxophthalazin-2(1H)-yl]-2-[(1S,2S,5R)-3,3-difluoro-6,6-dimethylbicyclo[3.1.1]hept-2-yl]acetamide] | statistically significant change | 60 | 6.00 to 6.30 |  |
| O=C(Cc1ccccc1)Nn1nc(-c2ccc(Cl)cc2)c2ccccc2c1=O [Example 91, N-[4-(4-chlorophenyl)-1-oxophthalazin-2(1H)-yl]-2-phenylacetamide] | statistically significant change | 101 | 6.30 to 7.00 |  |
| O=C(Cc1ccc(Cl)cc1)Nn1nc(-c2ccc(Cl)cc2)c2ccccc2c1=O [Example 117, 2-(4-chlorophenyl)-N-[4-(4-chlorophenyl)-1-oxophthalazin-2(1H)-yl]acetamide] | statistically significant change | 120 | 6.30 to 7.00 |  |
